# Assay results published in ChEMBL document CHEMBL5154813 (Eur J Med Chem, 2022).
# pEC50: −log10 of the molar value. Calls of active or inactive are those of the source. No cut-off for these calls is given here.
# Molecular target: T1, Peroxisome proliferator-activated receptor alpha (Homo sapiens) (UniProt Q07869)
# T1 sequence (whole entry): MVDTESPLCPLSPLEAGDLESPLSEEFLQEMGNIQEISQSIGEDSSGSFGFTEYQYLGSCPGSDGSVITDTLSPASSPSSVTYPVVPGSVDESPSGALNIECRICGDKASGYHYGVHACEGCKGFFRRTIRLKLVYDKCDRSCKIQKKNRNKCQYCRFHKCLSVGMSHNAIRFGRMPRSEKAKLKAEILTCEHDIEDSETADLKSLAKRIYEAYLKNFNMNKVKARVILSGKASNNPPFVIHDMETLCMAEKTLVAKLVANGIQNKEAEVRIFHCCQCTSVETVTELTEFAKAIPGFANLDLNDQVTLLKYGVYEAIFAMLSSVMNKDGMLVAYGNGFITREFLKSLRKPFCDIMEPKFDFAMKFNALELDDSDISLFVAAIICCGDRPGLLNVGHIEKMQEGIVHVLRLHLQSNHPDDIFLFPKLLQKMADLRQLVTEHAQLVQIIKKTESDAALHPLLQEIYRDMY
# Assay: Agonist activity at yeast Gal4-fused human PPARalpha LBD transfected in human HepG2 cells assessed as transactivation by measuring beta-galactosidase activity incubated for 20 hrs by luminometry relative to control
# Assay type: cell-based
# Settings: filed as agonist
row,SMILES,Emax [%]
1,O=C(NC(CSCc1ccc(C(=O)c2ccccc2)cc1)C(=O)O)OCc1ccccc1 (stereo unspecified),90
2,O=C(NC(CSCc1ccc(Cc2ccc(Cl)cc2)cc1)C(=O)O)OCc1ccccc1 (stereo unspecified),165
3,CC(C)(C)OC(=O)N[C@@H](CSCc1ccc(C(=O)c2ccccc2)cc1)C(=O)O,108
4,O=C(Cc1ccccc1)NC(CSCc1ccccc1)C(=O)O (stereo unspecified),148

# Molecular target: T2, Peroxisome proliferator-activated receptor gamma (Homo sapiens, UniProt P37231)
# T2 sequence (P37231 whole entry): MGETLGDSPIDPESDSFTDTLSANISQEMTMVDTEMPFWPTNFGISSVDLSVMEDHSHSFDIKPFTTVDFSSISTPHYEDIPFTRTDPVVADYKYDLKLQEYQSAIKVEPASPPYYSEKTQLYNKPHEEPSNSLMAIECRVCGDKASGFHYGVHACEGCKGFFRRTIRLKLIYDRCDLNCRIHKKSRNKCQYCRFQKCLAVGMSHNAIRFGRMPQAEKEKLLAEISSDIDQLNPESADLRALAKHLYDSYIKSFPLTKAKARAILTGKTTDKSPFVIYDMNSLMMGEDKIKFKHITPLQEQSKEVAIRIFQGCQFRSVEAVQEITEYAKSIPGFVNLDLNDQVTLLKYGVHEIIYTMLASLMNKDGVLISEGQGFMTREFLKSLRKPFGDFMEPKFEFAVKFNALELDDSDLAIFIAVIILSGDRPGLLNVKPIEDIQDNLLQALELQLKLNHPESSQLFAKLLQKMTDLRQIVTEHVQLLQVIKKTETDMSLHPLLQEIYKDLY
# Assay: Agonist activity at yeast Gal4-fused human PPARgamma transfected in human HepG2 cells assessed as transactivation by measuring beta-galactosidase activity incubated for 20 hrs by luminometry
# Assay type: cell-based
# Settings: not given
row,SMILES,pEC50
1,O=C(NC(CSCc1ccc(C(=O)c2ccccc2)cc1)C(=O)O)OCc1ccccc1 (stereo unspecified),5.10
2,CC(C)(C)OC(=O)N[C@@H](CSCc1ccc(C(=O)c2ccccc2)cc1)C(=O)O,5.08
3,O=C(Cc1ccccc1)NC(CSCc1ccccc1)C(=O)O (stereo unspecified),4.96

# Molecular target: T3, Peroxisome proliferator-activated receptor (Homo sapiens) (UniProt P37231+Q07869+Q03181)
# Assay: Agonist activity at PPAR in oleic acid-induced steatosis in human HepaRG cells assessed as increase in liver CPT1a mRNA levels at 100 uM treated for 2 weeks with media replenishment along with compound and inducer for every 2 days by RT-qPCR analysis
# Assay type: cell-based
# Settings: filed as agonist
row,SMILES,Activity
1,CC(C)(C)OC(=O)N[C@@H](CSCc1ccc(C(=O)c2ccccc2)cc1)C(=O)O,Active

# Molecular target: T3, Peroxisome proliferator-activated receptor (Homo sapiens)
# Assay: Agonist activity at PPAR in oleic acid-induced steatosis in human HepaRG cells assessed as increase in HMGCS2 mRNA levels at 100 uM treated for 24 hrs by RT-qPCR analysis
# Assay type: cell-based
# Settings: filed as agonist
row,SMILES,Activity
1,CC(C)(C)OC(=O)N[C@@H](CSCc1ccc(C(=O)c2ccccc2)cc1)C(=O)O,Active

# Tested on: HepaRG
# Assay: Reduction of lipid accumulation in oleic acid-induced steatosis in human HepaRG cells at 100 uM treated for 24 hrs by spectrophotometry
# Assay type: functional, cell-based
# Settings: not given
row,SMILES,Activity
1,CC(C)(C)OC(=O)N[C@@H](CSCc1ccc(C(=O)c2ccccc2)cc1)C(=O)O,Active

# Molecular target: T3, Peroxisome proliferator-activated receptor (Homo sapiens)
# Assay: Agonist activity at PPAR in oleic acid-induced steatosis in human HepaRG cells assessed as increase in FGF21 mRNA levels at 100 uM treated for 24 hrs by RT-qPCR analysis
# Assay type: cell-based
# Settings: filed as agonist
row,SMILES,Activity
1,CC(C)(C)OC(=O)N[C@@H](CSCc1ccc(C(=O)c2ccccc2)cc1)C(=O)O,Active

# Tested on: C2C12
# Assay: Induction of 2-NBD-glucose uptake in mouse C2C12 cells at 25 uM incubated in starvation medium with replacement of fresh medium for every 24 hrs for 96 hrs followed by 2-NBD-glucose treatment for 3 hrs by flow cytometric analysis
# Assay type: functional, cell-based
# Settings: time 99.0 hrs
row,SMILES,Activity
1,CC(C)(C)OC(=O)N[C@@H](CSCc1ccc(C(=O)c2ccccc2)cc1)C(=O)O,Active

# Molecular target: T3, Peroxisome proliferator-activated receptor (Homo sapiens)
# Assay: Agonist activity at PPAR in oleic acid-induced steatosis in human HepaRG cells assessed as increase in PDK4 mRNA levels at 100 uM treated for 24 hrs by RT-qPCR analysis
# Assay type: cell-based
# Settings: filed as agonist
row,SMILES,Activity
1,CC(C)(C)OC(=O)N[C@@H](CSCc1ccc(C(=O)c2ccccc2)cc1)C(=O)O,Active

# Tested on: HepaRG
# Assay: Reduction of lipid accumulation in oleic acid-induced steatosis in human HepaRG cells at 100 uM treated for 2 weeks with media replenishment along with compound and inducer for every 2 days by Oil Red O staining based microscopy
# Assay type: functional, cell-based
# Settings: not given
row,SMILES,Activity
1,CC(C)(C)OC(=O)N[C@@H](CSCc1ccc(C(=O)c2ccccc2)cc1)C(=O)O,Active

# Tested on: C2C12
# Assay: Induction of 2-NBD-glucose uptake in mouse C2C12 cells at 25 uM incubated in starvation medium with replacement of fresh medium for every 24 hrs for 96 hrs followed by insulin stimulation for 30 mins followed by 2-NBD-glucose treatment for 3 hrs by flow cytometric analysis
# Assay type: functional, cell-based
# Settings: time 99.5 hrs
row,SMILES,Activity
1,CC(C)(C)OC(=O)N[C@@H](CSCc1ccc(C(=O)c2ccccc2)cc1)C(=O)O,Active

# Molecular target: T3, Peroxisome proliferator-activated receptor (Homo sapiens)
# Assay: Agonist activity at PPAR in oleic acid-induced steatosis in human HepaRG cells assessed as increase in FABP1 mRNA levels at 100 uM treated for 2 weeks with media replenishment along with compound and inducer for every 2 days by RT-qPCR analysis
# Assay type: cell-based
# Settings: filed as agonist
row,SMILES,Activity
1,CC(C)(C)OC(=O)N[C@@H](CSCc1ccc(C(=O)c2ccccc2)cc1)C(=O)O,Active

# Molecular target: T3, Peroxisome proliferator-activated receptor (Homo sapiens)
# Assay: Agonist activity at PPAR in oleic acid-induced steatosis in human HepaRG cells assessed as increase in HMGCS2 mRNA levels at 100 uM treated for 2 weeks with media replenishment along with compound and inducer for every 2 days by RT-qPCR analysis
# Assay type: cell-based
# Settings: filed as agonist
row,SMILES,Activity
1,CC(C)(C)OC(=O)N[C@@H](CSCc1ccc(C(=O)c2ccccc2)cc1)C(=O)O,Active

# Tested on: HepaRG
# Assay: Reduction of lipid accumulation in oleic acid-induced steatosis in human HepaRG cells at 250 uM treated for 2 weeks with media replenishment along with compound and inducer for every 2 days by Oil Red O staining based microscopy
# Assay type: functional, cell-based
# Settings: not given
row,SMILES,Activity
1,CC(C)OC(=O)C(C)(C)Oc1ccc(C(=O)c2ccc(Cl)cc2)cc1,Active

# Molecular target: T3, Peroxisome proliferator-activated receptor (Homo sapiens)
# Assay: Agonist activity at PPAR in oleic acid-induced steatosis in human HepaRG cells assessed as increase in FGF21 mRNA levels at 100 uM treated for 2 weeks with media replenishment along with compound and inducer for every 2 days by RT-qPCR analysis
# Assay type: cell-based
# Settings: filed as agonist
row,SMILES,Activity
1,CC(C)(C)OC(=O)N[C@@H](CSCc1ccc(C(=O)c2ccccc2)cc1)C(=O)O,Active

# Tested on: HepaRG
# Assay: Reduction of lipid accumulation in oleic acid-induced steatosis in human HepaRG cells at 100 uM treated for 2 weeks with media replenishment along with compound and inducer for every 2 days by spectrophotometry
# Assay type: functional, cell-based
# Settings: not given
row,SMILES,Activity
1,CC(C)(C)OC(=O)N[C@@H](CSCc1ccc(C(=O)c2ccccc2)cc1)C(=O)O,Active

# Tested on: not listed separately
# Assay: Permeability of compound in human Caco-2 cells
# Assay type: ADME, cell-based
# Settings: not given
row,SMILES,permeability
1,CC(C)(C)OC(=O)N[C@@H](CSCc1ccc(C(=O)c2ccccc2)cc1)C(=O)O,Permeable

# Molecular target: T4, Peroxisome proliferator-activated receptor delta (Homo sapiens, UniProt Q03181)
# T4 sequence (Q03181 whole entry): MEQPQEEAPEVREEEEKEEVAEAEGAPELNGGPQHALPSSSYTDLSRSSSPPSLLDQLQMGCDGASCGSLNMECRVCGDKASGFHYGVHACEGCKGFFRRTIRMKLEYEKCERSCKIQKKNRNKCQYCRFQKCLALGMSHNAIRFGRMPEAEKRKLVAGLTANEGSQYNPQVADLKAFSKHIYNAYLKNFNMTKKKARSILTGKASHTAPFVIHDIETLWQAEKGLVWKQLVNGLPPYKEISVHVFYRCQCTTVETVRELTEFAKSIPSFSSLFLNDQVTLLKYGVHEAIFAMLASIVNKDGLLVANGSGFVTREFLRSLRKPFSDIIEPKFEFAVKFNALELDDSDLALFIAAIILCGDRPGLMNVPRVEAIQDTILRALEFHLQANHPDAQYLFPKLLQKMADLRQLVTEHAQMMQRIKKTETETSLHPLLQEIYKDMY
# Assay: Agonist activity at yeast Gal4-fused human PPARdelta transfected in human HepG2 cells assessed as transactivation by measuring beta-galactosidase activity incubated for 20 hrs by luminometry
# Assay type: cell-based
# Settings: not given
row,SMILES,pEC50
1,CC(C)(C)OC(=O)N[C@@H](CSCc1ccc(C(=O)c2ccccc2)cc1)C(=O)O,4.55

# Molecular target: T3, Peroxisome proliferator-activated receptor (Homo sapiens)
# Assay: Agonist activity at PPAR in oleic acid-induced steatosis in human HepaRG cells assessed as increase in FABP1 mRNA levels at 100 uM treated for 24 hrs by RT-qPCR analysis
# Assay type: cell-based
# Settings: filed as agonist
row,SMILES,Activity
1,CC(C)(C)OC(=O)N[C@@H](CSCc1ccc(C(=O)c2ccccc2)cc1)C(=O)O,Active

# Tested on: HepaRG
# Assay: Reduction of lipid accumulation in oleic acid-induced steatosis in human HepaRG cells at 100 uM treated for 24 hrs by Oil Red O staining based microscopy
# Assay type: functional, cell-based
# Settings: not given
row,SMILES,Activity
1,CC(C)(C)OC(=O)N[C@@H](CSCc1ccc(C(=O)c2ccccc2)cc1)C(=O)O,Active

# Tested on: HepaRG
# Assay: Reduction of lipid accumulation in oleic acid-induced steatosis in human HepaRG cells at 10 uM treated for 2 weeks with media replenishment along with compound and inducer for every 2 days by spectrophotometry
# Assay type: functional, cell-based
# Settings: not given
row,SMILES,Activity
1,CN(CCOc1ccc(CC2SC(=O)NC2=O)cc1)c1ccccn1 (stereo unspecified),Active

# Molecular target: T5, Peroxisome proliferator-activated receptor alpha (Homo sapiens, UniProt Q07869)
# T5 sequence (Q07869 whole entry): T1 sequence (whole entry)
# Assay: Agonist activity at yeast Gal4-fused human PPARalpha LBD transfected in human HepG2 cells assessed as transactivation by measuring beta-galactosidase activity incubated for 20 hrs by luminometry
# Assay type: cell-based
# Settings: not given
row,SMILES,pEC50
1,O=C(NC(CSCc1ccc(C(=O)c2ccccc2)cc1)C(=O)O)OCc1ccccc1 (stereo unspecified),5.72
2,O=C(NC(CSCc1ccc(Cc2ccc(Cl)cc2)cc1)C(=O)O)OCc1ccccc1 (stereo unspecified),7.80
3,CC(C)(C)OC(=O)N[C@@H](CSCc1ccc(C(=O)c2ccccc2)cc1)C(=O)O,5.80
4,O=C(Cc1ccccc1)NC(CSCc1ccccc1)C(=O)O (stereo unspecified),5.59

# Tested on: HepaRG
# Assay: Reduction of lipid accumulation in oleic acid-induced steatosis in human HepaRG cells at 250 uM treated for 2 weeks with media replenishment along with compound and inducer for every 2 days by spectrophotometry
# Assay type: functional, cell-based
# Settings: not given
row,SMILES,Activity
1,CC(C)OC(=O)C(C)(C)Oc1ccc(C(=O)c2ccc(Cl)cc2)cc1,Active

# Tested on: HepaRG
# Assay: Reduction of lipid accumulation in oleic acid-induced steatosis in human HepaRG cells at 10 uM treated for 2 weeks with media replenishment along with compound and inducer for every 2 days by Oil Red O staining based microscopy
# Assay type: functional, cell-based
# Settings: not given
row,SMILES,Activity
1,CN(CCOc1ccc(CC2SC(=O)NC2=O)cc1)c1ccccn1 (stereo unspecified),Active
